In one series the target is T1, human LXRα (Homo sapiens, UniProt Q13133).
T1 construct: expressed in transfected cells; host or cells: CV-1 cells
T1 sequence (Q13133 1-447): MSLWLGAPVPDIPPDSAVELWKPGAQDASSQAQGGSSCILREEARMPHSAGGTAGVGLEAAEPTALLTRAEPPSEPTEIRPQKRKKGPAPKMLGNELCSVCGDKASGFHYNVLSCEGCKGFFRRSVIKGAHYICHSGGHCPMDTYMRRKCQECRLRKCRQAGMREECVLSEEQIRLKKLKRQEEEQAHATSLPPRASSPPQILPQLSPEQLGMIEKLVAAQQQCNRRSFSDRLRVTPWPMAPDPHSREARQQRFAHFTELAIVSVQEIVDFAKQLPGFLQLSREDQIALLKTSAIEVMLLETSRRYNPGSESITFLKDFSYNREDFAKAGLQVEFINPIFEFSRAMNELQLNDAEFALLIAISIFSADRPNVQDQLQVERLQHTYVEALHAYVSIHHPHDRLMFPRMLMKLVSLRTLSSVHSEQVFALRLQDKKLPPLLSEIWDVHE
T1 sequence (P19793 1-462 partner): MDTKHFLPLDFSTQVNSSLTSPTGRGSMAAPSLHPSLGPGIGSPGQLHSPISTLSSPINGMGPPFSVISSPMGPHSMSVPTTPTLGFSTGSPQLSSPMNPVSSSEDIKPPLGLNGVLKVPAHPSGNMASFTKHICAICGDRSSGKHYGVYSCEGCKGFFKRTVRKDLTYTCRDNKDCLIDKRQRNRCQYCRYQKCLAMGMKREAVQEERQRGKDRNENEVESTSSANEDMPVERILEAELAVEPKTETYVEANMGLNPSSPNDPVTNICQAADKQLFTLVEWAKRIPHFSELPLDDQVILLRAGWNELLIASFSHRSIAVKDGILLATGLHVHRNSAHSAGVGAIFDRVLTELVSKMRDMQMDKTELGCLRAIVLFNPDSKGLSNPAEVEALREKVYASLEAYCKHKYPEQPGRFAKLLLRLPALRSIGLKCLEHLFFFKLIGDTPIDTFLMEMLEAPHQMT
Description: Full-length hLXRα/hRXRα LXREx3 TK-Luc reporter assay in transfected CV-1 cells. It counts as cell-based. The settings on record: 20 μM, 40 hours. As to the method:
(§1) CV-1 cells were grown in DMEM supplemented with 10% resin-charcoal stripped fetal bovine serum, 50 U/ml penicillin G and 50 μg/ml streptomycin sulfate at 37° C. in 5% CO2. Cells were plated to 50-80% confluence one day prior to transfection using phenol red-free DMEM-FBS. The cells were transfected by lipofection using N-[1-(2,3-dioleoyloxy)propyl]-N,N,N-ammonium methyl sulfate according to manufacturer's instructions (Boehringer Mannheim).
(§2) Genes encoding the following full-length proteins, which are suitable for use in the studies described herein, were cloned into pCMX: human RXRα (Gene Bank accession X52773) and human LXRα (GenBank accession U22662). The cells were transfected with CMX-βgal and luciferase constructs. The CMX-βGal construct contained the ligand binding domain of human RXR (hRXRα) and the ligand binding domain of human LXRα (hLXRα) as indicated in FIG. 1. The luciferase reporter construct (LXREx3 TK-Luc) contained the herpes virus thymidine kinase promoter (−105/+51) linked to three copies of the response element LXRE. After transfection, the cells were treated with 20 μM of a synthetic azole test compound or vehicle alone for 40 hours in phenol red-free DMEM-FBS.

For series [1], the target named is T2, LXRα-RXR heterodimers and receptor interaction domains of coactivator SRC1 (Homo sapiens, UniProt Q13133).
T2 construct: expressed in transfected cells; host or cells: CV-1 cells
T2 sequence (Q13133 209-447 limits assumed): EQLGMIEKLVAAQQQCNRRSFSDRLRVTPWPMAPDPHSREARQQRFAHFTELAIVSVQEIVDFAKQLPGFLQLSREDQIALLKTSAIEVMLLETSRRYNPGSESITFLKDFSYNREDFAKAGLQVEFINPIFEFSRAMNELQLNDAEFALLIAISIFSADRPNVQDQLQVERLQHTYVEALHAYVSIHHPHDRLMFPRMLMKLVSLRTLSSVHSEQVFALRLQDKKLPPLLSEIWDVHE
T2 sequence (P19793 227-458 partner limits assumed): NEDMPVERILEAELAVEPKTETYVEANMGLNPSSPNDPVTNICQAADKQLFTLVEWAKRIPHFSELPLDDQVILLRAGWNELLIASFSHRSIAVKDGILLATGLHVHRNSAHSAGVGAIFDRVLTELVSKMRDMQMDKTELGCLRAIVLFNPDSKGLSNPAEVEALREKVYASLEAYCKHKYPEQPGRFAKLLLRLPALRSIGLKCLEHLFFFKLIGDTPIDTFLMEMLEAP
In words: LXR-coactivator association, VP-L-hLXRα / L-hRXRα / GAL4-SRC1 in CV-1 cells. In kind it is cell-based. The conditions noted are these: 20 μM, coactivator GAL4-SRC1, CV-1 cells. Here is the method:
as §1, §2
VP-L-hLXRα contains the transactivation domain of Herpes VP16, linked to the LBD of human LXRα, L-hRXRα is the LBD of human RXRα. UASGx4 TK-Luc was the reporter gene, and the assay additionally included the coactivator GAL4-SRC1. Treatment with 20 μM azole compound as indicated was able to inhibit interactions between LXRα-RXR heterodimers and the receptor interaction domains from the coactivator SRC1.

Series [2] deals with −241/+12 mSREBP-1c promoter. In words: SREBP-1c promoter reporter assay in CV-1 cells. The settings on record: 10 μM. In kind it is cell-based. Here is the method: This promoter is directly regulated by LXR via two LXREs present within the first 240 base pairs of the proximal promoter. Thus, we transfected CV-1 cells with the −241/+12 mSREBP-1c promoter along with LXRα or LXRβ. CV-1 cells were transiently transfected with full length LXRα or LXRβ, the SREBP-1c promoter or the SREBP-1c LXREm reporter and CMX-β-gal (as an internal control) in lipid-stripped serum. After transfection, the cells were treated with 10 μM Clotrimazole. The luciferase activity was normalized to the internal β-galactosidase control (reporter activity).
A general note: A reporter such as luciferase makes a cellular process visible.

The target of a further series is PPARα (Homo sapiens, UniProt Q07869). Description: PPARα activity (data not shown). It counts as cell-based.
PPARα, sequence (Q07869 whole entry, species assumed): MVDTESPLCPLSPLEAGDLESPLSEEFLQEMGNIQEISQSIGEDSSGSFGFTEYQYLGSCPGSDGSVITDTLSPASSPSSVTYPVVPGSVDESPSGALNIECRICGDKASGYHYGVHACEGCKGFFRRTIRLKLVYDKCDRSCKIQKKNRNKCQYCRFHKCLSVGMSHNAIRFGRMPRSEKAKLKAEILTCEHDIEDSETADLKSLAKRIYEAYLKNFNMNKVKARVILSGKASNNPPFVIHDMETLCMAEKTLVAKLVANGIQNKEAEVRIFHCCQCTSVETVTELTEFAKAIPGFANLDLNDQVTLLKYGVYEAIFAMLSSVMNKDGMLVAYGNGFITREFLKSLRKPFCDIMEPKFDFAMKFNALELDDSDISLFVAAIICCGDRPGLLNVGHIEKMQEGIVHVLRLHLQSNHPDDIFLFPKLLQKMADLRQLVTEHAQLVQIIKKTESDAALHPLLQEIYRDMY
The target in a further series is RXR (Homo sapiens, UniProt P19793). In words: RXR activity (data not shown). It counts as cell-based.
For a further series, the target named is mouse PXR (Mus musculus, UniProt O54915). The settings on record: cited from earlier work.
mouse PXR, sequence (O54915 whole entry): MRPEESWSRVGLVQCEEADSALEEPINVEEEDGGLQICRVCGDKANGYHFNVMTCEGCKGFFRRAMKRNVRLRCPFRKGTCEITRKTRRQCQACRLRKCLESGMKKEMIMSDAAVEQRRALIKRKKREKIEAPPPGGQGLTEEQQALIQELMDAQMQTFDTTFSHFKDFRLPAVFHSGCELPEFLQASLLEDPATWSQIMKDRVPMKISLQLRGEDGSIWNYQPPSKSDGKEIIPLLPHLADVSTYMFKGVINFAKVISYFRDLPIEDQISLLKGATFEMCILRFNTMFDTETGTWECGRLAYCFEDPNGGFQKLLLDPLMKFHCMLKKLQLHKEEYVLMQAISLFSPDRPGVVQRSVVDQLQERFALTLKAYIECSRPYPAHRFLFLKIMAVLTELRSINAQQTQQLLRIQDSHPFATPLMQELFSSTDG

As to `Clc1ccccc1C(c1ccccc1)(c1ccccc1)n1ccnc1` [Clotrimazole], the “antagonism of constitutive activation mediated by LXR (hLXRα activity, LXREx3 TK-Luc)” value on human LXRα is listed as “antagonize the constitutive activation mediated by LXR”. Also, in series [1], the “inhibition of LXR-coactivator association” value is recorded as “inhibition of LXR-coactivator association”. Besides, in series [2] (absence of LXR, lipid-stripped serum), the SREBP-1c promoter activity entry is “repressed”. The “SREBP-1c LXREm mutant promoter activity” value in series [2] (both LXREs inactivated, absence or presence of LXR) is “did not repress the promoter activity”. In addition, in series [2] (co-transfected LXRα), the “LXRα-induced SREBP-1c promoter activity” value was “repressed the LXR-induced activity”. Also, in series [2] (co-transfected LXRβ), the “LXRβ-induced SREBP-1c promoter activity” value is “repressed the LXR-induced activity”. For the same compound, at PPARα, the “effect on PPARα activity” value is on record as “no effect”. Besides, the “effect on RXR activity” value on RXR is “no effect”. In addition, the “activity on mouse PXR” value on mouse PXR is on record as “agonist”.

The record behind these values is US20050009837A1, “Modulators of lipid metabolism and methods of use” (City of Hope, priority 2003, published 2005).
